Measured values as given in article PMC13266984 (Journal of medicinal chemistry, 2026).
Values joined by “and” are separate entries in the source; they are usually repeats but may differ in a detail not shown here. Equal values may be shown once.

Experiments:
[1] = biological target: T1, OE19 (3A1) (Homo sapiens, UniProt P30838); experiment: Cellular ALDEFLUOR assay in OE19 cells (preferential ALDH3A1 expression)
T1 sequence (P30838 1-453): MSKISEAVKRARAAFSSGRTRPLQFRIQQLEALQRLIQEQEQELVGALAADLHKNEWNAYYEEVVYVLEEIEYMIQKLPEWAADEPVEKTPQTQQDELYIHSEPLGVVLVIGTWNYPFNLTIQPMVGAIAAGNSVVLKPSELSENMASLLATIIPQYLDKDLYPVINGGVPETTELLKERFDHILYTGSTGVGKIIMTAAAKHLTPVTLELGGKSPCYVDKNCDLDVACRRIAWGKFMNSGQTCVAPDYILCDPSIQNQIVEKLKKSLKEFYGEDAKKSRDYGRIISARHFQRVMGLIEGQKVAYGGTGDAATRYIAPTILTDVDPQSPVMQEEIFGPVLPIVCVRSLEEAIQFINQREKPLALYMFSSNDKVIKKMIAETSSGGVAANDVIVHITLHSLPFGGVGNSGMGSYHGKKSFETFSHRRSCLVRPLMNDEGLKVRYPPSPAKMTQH

[2] = biological target: T2, Human ALDH3A1 (Homo sapiens, UniProt P30838); experiment: ALDH3A1 biochemical assay (benzaldehyde/NADP+, diaphorase-resazurin readout, 1,536-well)
T2 sequence (P30838 1-453): T1 sequence (P30838 1-453)

[3] = Table S4, biochemical curve class
[4] = Table S5, biochemical curve class

Row | Structure (SMILES) | AC50 [1] [nM] | Cell_Efficacy ([1]; Table S4, OE19 cells) | Cell_CC-v2 ([1]; Table S4, cellular curve class) | IC50 ([1]; cellular IC50 (Aldefluor), OE19 cells) [nM] | AC50 [2] [nM] | IC50 ([2]; ALDH3A1 biochemical IC50) | Efficacy ([2]; Table S4, biochemical) | CC-v2 [2, 3] | activity in the biochemical assay ([2]; in words) | Cell_Efficacy ([1]; Table S5, OE19 cells) | Cell_CC-v2 ([1]; Table S5, cellular curve class) | Efficacy ([2]; Table S5, biochemical) | CC-v2 [2, 4] | Efficacy ([2]; Table S1, primary screen) | CC-v2 ([2]; Table S1, primary screen, curve class)
1 | Cc1cccc(CNC(=O)c2csc(N3CCN(c4ccc(C(F)(F)F)cc4)CC3)n2)c1 [Compound 7] | 880 | -93.28 | -1.1 | – | 320 | – | -97.93 | -1.1 | – | – | – | – | – | – | –
2 | Cc1cccc(CNC(=O)c2csc(N3CCN(c4ccccc4Br)CC3)n2)c1 [Compound 9] | 8810 | -81.02 | -1.3 | – | 410 | – | -99.96 | -1.1 | – | – | – | – | – | – | –
3 | Cc1cccc(CNC(=O)c2csc(N3CCN(c4ccc(Cl)cn4)CC3)n2)c1 [Compound 11] | 3510 | -68.27 | -1.2 | – | 460 | – | -99.36 | -1.1 | good activity | – | – | – | – | – | –
4 | Cc1cccc(CNC(=O)c2csc(N3CCN(c4ccc(F)c(Cl)c4)CC3)n2)c1 [Compound 12] | 990 | -76.59 | -1.1 | – | 510 | – | -99.84 | -1.1 | – | – | – | – | – | – | –
5 | O=C(NCc1ccc2ccccc2c1)c1csc(N2CCN(c3cccc(C(F)(F)F)c3)CC2)n1 [Compound 17] | 40.7 | – | – | – | 11.9 | – | – | – | – | -93.35 | -1.1 | -92.05 | -1.1 | – | –
6 | O=C(NCc1cccc(COc2ccccc2)c1)c1csc(N2CCN(c3cccc(C(F)(F)F)c3)CC2)n1 [Compound 18] | 43.1 | – | – | – | 14.1 | – | – | – | – | -79.42 | -1.1 | -100.33 | -1.1 | – | –
7 | Cc1ccc(-c2cccc(CNC(=O)c3csc(N4CCN(c5cccc(C(F)(F)F)c5)CC4)n3)c2)cc1 [Compound 19] | 10.2 | – | – | – | 23.7 | – | – | – | – | -77.01 | -1.1 | -83.86 | -1.1 | – | –
8 | O=C(NCc1cccc(N2CCC2=O)c1)c1csc(N2CCN(c3cccc(C(F)(F)F)c3)CC2)n1 [Compound 20] | 10.8 | – | – | – | 63.1 | – | – | – | – | -81.94 | -1.2 | -96.26 | -1.1 | – | –
9 | Cc1cc(OC2CN(C(=O)c3cc(-c4ccc(F)cc4)n[nH]3)C2)n2ncnc2n1 [NCGC00531207-01] | – | – | – | – | 14100 | – | – | – | – | – | – | – | – | -93.27 | -2.3
10 | Cc1cccc(CNC(=O)c2csc(N3CCN(c4ccc(C5(C#N)CC5)cc4)CC3)n2)c1 [NCGC01210256-01] | 15700 | -71.00 | -1.4 | – | 14500 | – | -66.81 | -1.2 | – | – | – | – | – | – | –
11 | Cc1cccc(CNC(=O)c2csc(N3CCN(c4cccc(C(F)(F)F)n4)CC3)n2)c1 [NCGC01210535-01] | 7850 | -90.86 | -1.1 | – | 580 | – | -96.11 | -1.1 | – | – | – | – | – | – | –
12 | Cc1cccc(CNC(=O)c2csc(N3CCN(c4ccc(C5(C#N)CCCC5)cc4)CC3)n2)c1 [NCGC01210598-01] | 3930 | -104.17 | -2.1 | – | 1020 | – | -62.83 | -1.2 | – | – | – | – | – | – | –
13 | Cc1cccc(CNC(=O)c2csc(N3CCN(c4ccc(C5(C#N)CCCCC5)cc4)CC3)n2)c1 [NCGC01210611-01] | 620 | -33.71 | -1.2 | – | 730 | – | -77.35 | -1.2 | – | – | – | – | – | – | –
14 | Cc1cccc(CNC(=O)c2csc(N3CCN(c4cccc(C#N)c4)CC3)n2)c1 [NCGC01210664-01] | 11100 | -103.93 | -2.1 | – | 1020 | – | -83.70 | -1.1 | – | – | – | – | – | – | –
15 | Cc1cccc(CNC(=O)c2csc(N3CCN(c4cccc([S+](C)(=O)[O-])c4)CC3)n2)c1 [NCGC01210723-01] | 1240 | -75.10 | -1.2 | – | 3640 | – | -72.64 | -1.2 | – | – | – | – | – | – | –
16 | COc1ccccc1N1CCN(c2nc(C(=O)NCc3cccc(C)c3)cs2)CC1 [NCGC01210996-01] | 50 | -98.32 | -1.3 | – | 910 | – | -91.28 | -1.1 | – | – | – | – | – | – | –
17 | Cc1cccc(CNC(=O)c2csc(N3CCN(c4cccc(O)c4)CC3)n2)c1 [NCGC01211119-01] | 15700 | -77.14 | -1.2 | – | 2570 | – | -61.43 | -1.2 | – | – | – | – | – | – | –
18 | COc1c(F)cc(N2CCN(c3nc(C(=O)NCc4cccc(C)c4)cs3)CC2)cc1F [NCGC01211123-01] | 1760 | -94.45 | -1.2 | – | 580 | – | -77.80 | -1.2 | – | – | – | – | – | – | –
19 | Cc1cccc(CNC(=O)c2csc(N3CCN(c4ccc(O)cc4)CC3)n2)c1 [NCGC01211126-01] | 15700 | -68.34 | -1.2 | – | 5760 | – | -62.10 | -1.2 | – | – | – | – | – | – | –

More lines, now with the values ahead:

Row | AC50 [1] [nM] | Cell_Efficacy ([1]; Table S4, OE19 cells) | Cell_CC-v2 ([1]; Table S4, cellular curve class) | IC50 ([1]; cellular IC50 (Aldefluor), OE19 cells) [nM] | AC50 [2] [nM] | IC50 ([2]; ALDH3A1 biochemical IC50) | Efficacy ([2]; Table S4, biochemical) | CC-v2 [2, 3] | activity in the biochemical assay ([2]; in words) | Cell_Efficacy ([1]; Table S5, OE19 cells) | Cell_CC-v2 ([1]; Table S5, cellular curve class) | Efficacy ([2]; Table S5, biochemical) | CC-v2 [2, 4] | Efficacy ([2]; Table S1, primary screen) | CC-v2 ([2]; Table S1, primary screen, curve class) | Structure (SMILES)
20 | 3130 | -101.21 | -2.2 | 3130 | 230 | 230 nM and 229 nM | -100.07 | -1.1 | – | – | – | – | – | – | – | Cc1cccc(CNC(=O)c2csc(N3CCN(c4cccc(C(F)(F)F)c4)CC3)n2)c1 [Compound 5]
21 | 500 | -115.29 | -2.1 | – | 360 | – | -84.72 | -1.1 | – | – | – | – | – | – | – | Cc1cccc(CNC(=O)c2csc(N3CCN(c4cccc([N+](=O)[O-])c4)CC3)n2)c1 [Compound 8]
22 | 200 | -86.93 | -1.3 | – | 410 | – | -94.28 | -1.1 | – | – | – | – | – | – | – | Cc1cccc(CNC(=O)c2csc(N3CCN(c4cccc(Br)c4)CC3)n2)c1 [Compound 10]
23 | 34.2 | – | – | – | 7.9 | – | – | – | – | -81.01 | -1.1 | -106.26 | -1.1 | – | – | Cc1cc(CNC(=O)c2csc(N3CCN(c4cccc(C(F)(F)F)c4)CC3)n2)ccc1Cl [Compound 16]
24 | 3130 | -106.55 | -1.3 | – | 730 | – | -94.33 | -1.1 | – | – | – | – | – | – | – | Cc1cccc(CNC(=O)c2csc(N3CCN(c4ccc(C(F)(F)F)cn4)CC3)n2)c1 [NCGC01210237-01]
25 | 9880 | -51.72 | -2.4 | – | 810 | – | -79.44 | -1.1 | – | – | – | – | – | – | – | Cc1cccc(CNC(=O)c2csc(N3CCN(c4cc(C(F)(F)F)nc5ccccc45)CC3)n2)c1 [NCGC01210239-01]
26 | 35100 | -81.56 | -2.2 | – | 1020 | – | -95.69 | -1.1 | – | – | – | – | – | – | – | Cc1cccc(CNC(=O)c2csc(N3CCN(c4ncccc4C(F)(F)F)CC3)n2)c1 [NCGC01210654-01]
27 | 15700 | -81.37 | -1.2 | – | 18200 | – | -54.32 | -1.2 | – | – | – | – | – | – | – | Cc1cccc(CNC(=O)c2csc(N3CCN(c4cccc([S+](=O)([O-])C(F)(F)F)c4)CC3)n2)c1 [NCGC01210726-01]
28 | 1570 | -79.67 | -1.1 | – | 460 | – | -48.74 | -1.2 | – | – | – | – | – | – | – | Cc1cccc(CNC(=O)c2csc(N3CCN(c4cccc(OCc5ccc(Cl)cc5)c4)CC3)n2)c1 [NCGC01211114-01]
29 | 990 | -81.24 | -1.1 | – | 1290 | – | -72.39 | -1.2 | – | – | – | – | – | – | – | COC(=O)c1ccc(N2CCN(c3nc(C(=O)NCc4cccc(C)c4)cs3)CC2)cc1 [NCGC01211115-01]
30 | 790 | -88.59 | -1.1 | – | 510 | – | -83.25 | -1.1 | – | – | – | – | – | – | – | Cc1cccc(CNC(=O)c2csc(N3CCN(c4ccc(Cl)c(Cl)c4)CC3)n2)c1 [NCGC01211120-01]
31 | 12400 | -81.66 | -1.3 | – | 910 | – | -88.53 | -1.1 | – | – | – | – | – | – | – | Cc1cccc(CNC(=O)c2csc(N3CCN(c4ccccc4Cl)CC3)n2)c1 [NCGC01211121-01]
32 | 4950 | -89.89 | -1.1 | – | 1020 | – | -98.80 | -1.1 | – | – | – | – | – | – | – | Cc1cccc(CNC(=O)c2csc(N3CCN(c4ccccc4F)CC3)n2)c1 [NCGC01211127-01]
